ChEMBL document CHEMBL4619709, “Synthesis and in-vitro anti-cancer evaluations of multi-methoxylated asymmetrical diarylpentanoids as intrinsic apoptosis inducer against colorectal cancer” (Bioorg Med Chem Lett, 2020)
Activity calls are given as the source filed them. The rule behind the calls is not given here.

Experiments:
RKO [1] = test: Induction of ROS generation in human RKO cells by fluorescence based assay; format: functional, cell-based
NCI-H508 [2] = test: Antiproliferative activity against human NCI-H508 cells assessed as reduction in cell viability after 72 hrs by MTT assay; format: functional, cell-based; settings: NCI-H508, 72 h
RKO [3] = test: Induction of apoptosis in human RKO cells assessed as increase in bax protein expression after 24 to 72 hrs by Western blot analysis; format: functional, cell-based
RKO [4] = test: Induction of apoptosis in human RKO cells assessed as reduction in bcl-xl expression after 72 hrs by Western blot analysis; format: functional, cell-based
RKO [5] = test: Induction of cell cycle arrest in human RKO cells assessed as accumulation at G0/G1 phase at 1.25 uM after 24 hrs by PI-staining based flow cytometry (reference value: 52%); format: functional
RKO [6] = test: Antiproliferative activity against human RKO cells assessed as reduction in cell viability after 72 hrs by MTT assay; format: functional, cell-based
RKO [7] = test: Induction of cell cycle arrest in human RKO cells assessed as accumulation at S phase at 0.625 uM after 24 hrs by PI-staining based flow cytometry (reference value: 28%); format: functional
LoVo [8] = test: Antiproliferative activity against human LoVo cells at 10 uM after 72 hrs by MTT assay; format: functional, cell-based
NHDF = test: Cytotoxicity against human NHDF cells assessed as reduction in cell viability; format: cell-based
RKO [9] = test: Induction of cell cycle arrest in human RKO cells assessed as accumulation at G2/M phase at 2.5 uM after 24 hrs by PI-staining based flow cytometry (reference value: 20%); format: functional
RKO [10] = test: Induction of cell cycle arrest in human RKO cells assessed as accumulation at S phase at 2.5 uM after 24 hrs by PI-staining based flow cytometry (reference value: 28%); format: functional
RKO [11] = test: Induction of apoptosis in human RKO cells assessed as increase in caspase-9 expression after 24 to 72 hrs by Western blot analysis; format: functional, cell-based
[12] = Therapeutic index, ratio of IC50 for human NHDF cells to IC50 for human LoVo cells after 72 hrs; format: toxicity; settings: NHDF cells versus LoVo cells, read-out: Ratio IC50
RKO [13] = test: Induction of apoptosis in human RKO cells assessed as reduction in procaspase-7 expression after 24 to 72 hrs by Western blot analysis; format: functional, cell-based
RKO [14] = test: Antiproliferative activity against human RKO cells at 10 uM after 72 hrs by MTT assay; format: functional, cell-based
[15] = Therapeutic index, ratio of IC50 for human NHDF cells to IC50 for human HT-29 cells after 72 hrs; format: toxicity; settings: NHDF cells versus HT-29 cells, read-out: Ratio IC50
RKO [16] = test: Induction of apoptosis in human RKO cells assessed as increase in bad protein expression after 24 to 72 hrs by Western blot analysis; format: functional, cell-based
HT-29 [17] = test: Antiproliferative activity against human HT-29 cells assessed as reduction in cell viability after 72 hrs by MTT assay; format: functional, cell-based; settings: HT-29, 72 h
RKO [18] = test: Induction of apoptosis in human RKO cells assessed as reduction in procaspase-9 expression after 24 to 72 hrs by Western blot analysis; format: functional, cell-based
RKO [19] = test: Induction of cell cycle arrest in human RKO cells assessed as accumulation at G2/M phase at 1.25 uM after 24 hrs by PI-staining based flow cytometry (reference value: 20%); format: functional
RKO [20] = test: Induction of apoptosis in human RKO cells assessed as reduction in bcl-2 expression after 24 hrs by Western blot analysis; format: functional, cell-based
SW-620 [21] = test: Antiproliferative activity against human SW620 cells at 10 uM after 72 hrs by MTT assay; format: functional, cell-based
HT-29 [22] = test: Antiproliferative activity against human HT-29 cells at 10 uM after 72 hrs by MTT assay; format: functional, cell-based
RKO [23] = test: Induction of cell cycle arrest in human RKO cells assessed as accumulation at G2/M phase at 0.625 uM after 24 hrs by PI-staining based flow cytometry (reference value: 20%); format: functional
RKO [24] = test: Induction of apoptosis in human RKO cells assessed as reduction in bcl-xl expression after 24 hrs by Western blot analysis; format: functional, cell-based
RKO [25] = test: Induction of cell cycle arrest in human RKO cells assessed as accumulation at G0/G1 phase at 0.625 uM after 24 hrs by PI-staining based flow cytometry (reference value: 52%); format: functional
RKO [26] = test: Induction of cell cycle arrest in human RKO cells assessed as accumulation at S phase at 1.25 uM after 24 hrs by PI-staining based flow cytometry (reference value: 28%); format: functional
T84 [27] = test: Antiproliferative activity against human T84 cells assessed as reduction in cell viability after 72 hrs by MTT assay; format: functional, cell-based; settings: T84, 72 h
RKO [28] = test: Induction of apoptosis in human RKO cells at 0.625 to 5 uM after by Annexin V-FITC/PI staining based flow cytometry; format: functional, cell-based; settings: TDE = time-dependent effect
RKO [29] = test: Induction of apoptosis in human RKO cells after 24 to 72 hrs by Annexin V-FITC/PI staining based flow cytometry; format: functional, cell-based
[30] = Therapeutic index, ratio of IC50 for human NHDF cells to IC50 for human T84 cells after 72 hrs; format: toxicity; settings: NHDF cells versus T84 cells, read-out: Ratio IC50
T84 [31] = test: Antiproliferative activity against human T84 cells at 10 uM after 72 hrs by MTT assay; format: functional, cell-based
[32] = Therapeutic index, ratio of IC50 for human NHDF cells to IC50 for human NCI-H508 cells after 72 hrs; format: toxicity; settings: NHDF cells versus NCI-H508 cells, read-out: Ratio IC50
RKO [33] = test: Inhibition of colony formation in human RKO cells at 1.25 to 5 uM after 9 days by crystal violet staining based assay; format: functional, cell-based
NCI-H508 [34] = test: Antiproliferative activity against human NCI-H508 cells at 10 uM after 72 hrs by MTT assay; format: functional, cell-based
RKO [35] = test: Inhibition of colony formation in human RKO cells at 0.625 uM treated for 9 days by crystal violet staining based assay; format: functional, cell-based
[36] = Therapeutic index, ratio of IC50 for human NHDF cells to IC50 for human SW620 cells after 72 hrs; format: toxicity; settings: NHDF cells versus SW620 cells, read-out: Ratio IC50
[37] = Therapeutic index, ratio of IC50 for human NHDF cells to IC50 for human RKO cells after 72 hrs; format: toxicity; settings: NHDF cells versus RKO cells, read-out: Ratio IC50
SW-620 [38] = test: Antiproliferative activity against human SW620 cells assessed as reduction in cell viability after 72 hrs by MTT assay; format: functional, cell-based; settings: SW-620, 72 h
RKO [39] = test: Induction of cell cycle arrest in human RKO cells assessed as accumulation at G0/G1 phase at 2.5 uM after 24 hrs by PI-staining based flow cytometry (reference value: 52%); format: functional
RKO [40] = test: Inhibition of colony formation in human RKO cells after 9 days by crystal violet staining based assay; format: functional, cell-based
LoVo [41] = test: Antiproliferative activity against human LoVo cells assessed as reduction in cell viability after 72 hrs by MTT assay; format: functional, cell-based
RKO [42] = test: Induction of apoptosis in human RKO cells assessed as reduction in procaspase-3 expression after 24 to 72 hrs by Western blot analysis; format: functional, cell-based

IC50 (NCI-H508 [2]): 4 µM | IC50 (HT-29 [17]): 3.4 µM | IC50 (SW-620 [38]): 800 nM | IC50 (LoVo [41]): 1100 nM
SMILES: COc1cc(/C=C2\CCC/C(=C\c3ccc(O)c(Cl)c3)C2=O)cc(OC)c1OC
Activity (RKO [1]): Dose-dependent effect | Activity (RKO [3]): Active | Activity (RKO [4]): inactive | Activity (RKO [5]): 52% | IC50 (RKO [6]): 700 nM | Activity (RKO [7]): 27% | Activity (LoVo [8]): Active | IC50 (NHDF): 6.9 µM | Activity (RKO [9]): 50% | Activity (RKO [10]): 23% | Activity (RKO [11]): Active | selectivity ratio at 72 h [12]: 1.8 to 9.9 | Activity (RKO [13]): Active | Activity (RKO [14]): Active | selectivity ratio at 72 h [15]: 1.8 to 9.9 | Activity (RKO [16]): Active | Activity (RKO [18]): Active | Activity (RKO [19]): 28% | Activity (RKO [20]): Active | Activity (SW-620 [21]): Active | Activity (HT-29 [22]): Active | Activity (RKO [23]): 21% | Activity (RKO [24]): Active | Activity (RKO [25]): 52% | Activity (RKO [26]): 20% | IC50 (T84 [27]): 1800 nM | Activity (RKO [28]): Tde | Activity (RKO [29]): Dose-dependent effect | selectivity ratio at 72 h [30]: 1.8 to 9.9 | Activity (T84 [31]): Active | selectivity ratio at 72 h [32]: 1.8 to 9.9 | inhibition (RKO [33]): Active | Activity (NCI-H508 [34]): Active | inhibition (RKO [35]): inactive | selectivity ratio at 72 h [36]: 1.8 to 9.9 | selectivity ratio at 72 h [37]: 1.8 to 9.9 | Activity (RKO [39]): 27% | inhibition (RKO [40]): Dose-dependent effect | Activity (RKO [42]): Active
